Experimental data published in US8835415B2, “Standardized composition, method of manufacture and use in the resolution of RNA virus infection” (priority 2009, dated 2014).

Tests used:
[1] = system: HIV-1 (X4 tropic virus); test: microbe, parasite or virus in culture; assay type: cell-based; conditions: CXCR4 trophic virus, PBMC
[2] = system: HIV-1 (R5 tropic virus); assay type: cell-based; conditions: CCR5 trophic virus, PBMC
[3] = system: Sheep Red Blood Cells (SRBCs); assay type: in vivo, Swiss albino mice; conditions: Cyclophosphamide 25 mg/kg p.o alone
Protocol: Swiss albino mice of either sex were divided into 5 groups with six animals per group based on the treatment they received.
On Day 0, all five groups were sensitized with Sheep Red Blood Cells (SRBCs) containing 1×10^8 cells in normal saline. […] On Day 7, blood samples were collected from each mouse in the five groups by retro orbital puncture for the determination of primary antibody titre. Subsequently on day 7, after the blood withdrawal, the mice were challenged with 0.1 ml of SRBCs into the foot pad. On Day 14, blood samples were collected from each mouse by retro orbital puncture for the determination of secondary antibody titre.

[4] = system: H1N1 virus, Sensitive strain (676); test: Plaque reduction assay in MDCK cells, H1N1 sensitive strain; assay type: cell-based; conditions: Influenza A virus, Tamiflu

c1cc(CN2CCCNCCNCCCNCC2)ccc1CN1CCCNCCNCCCNCC1 [AMD3100]
EC50 ([1]; Human immunodeficiency virus 1): 2.05 nM | inhibitory activity (in words) [2]: only against CXCR4 trophic virus

Cc1cn([C@H]2C[C@H](N=[N+]=[N-])[C@@H](CO)O2)c(=O)[nH]c1=O [AZT]
inhibitory activity (in words) [1]: exhibited inhibitory activity | inhibitory activity (in words) [2]: exhibited inhibitory activity

O=P1(N(CCCl)CCCl)NCCCO1 (stereo not drawn) [Cyclophosphamide]
PRIMARY HA TITRE ON DAY 7 [3]: 0.33 | SECONDARY HA TITRE ON DAY 14 [3]: 6.67

Cc1ccc(-c2ccc3c(c2)C=C(C(=O)Nc2ccc(C[N+](C)(C)C4CCOCC4)cc2)CCC3)cc1.[Cl-] [Tak-779]
inhibitory activity (in words) [1]: only against CCR5 trophic virus | EC50 [2]: 0.56 nM

CCOC(=O)C1=C[C@@H](OC(CC)CC)[C@H](NC(C)=O)[C@@H](N)C1 [Tamiflu, Oseltamivir]
EC50 [4]: 4.5 nM
